# Calls of active or inactive are those of the source. The rule behind the calls is not given here.
# Columns and labels:
# [1] = pKa value was determined; type: physicochemical
# [2] = target: Dihydrofolate reductase (Lactobacillus casei) (UniProt P00381); experiment: Inhibitory activity tested against dihydrofolate reductase from Lactobacillus casei; settings: Lacticaseibacillus casei
# [3] = target: T1, Dihydrofolate reductase (Mus musculus) (UniProt P00375); experiment: Inhibitory tested against Dihydrofolate reductase enzyme from L1210 mouse leukemia cells using [3H]methotrexate as a radioligand; type: cell-based
# T1 sequence (whole entry): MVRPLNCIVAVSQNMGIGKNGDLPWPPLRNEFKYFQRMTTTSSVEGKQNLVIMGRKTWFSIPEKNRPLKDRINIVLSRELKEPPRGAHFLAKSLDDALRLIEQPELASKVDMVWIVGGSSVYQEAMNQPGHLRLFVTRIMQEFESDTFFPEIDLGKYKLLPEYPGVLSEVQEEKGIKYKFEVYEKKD
# Mus musculus [4] = experiment: In vivo life span increase in mice after 30 mg/kg (mg/kg)/day (q3d X 3) starting 24 hr of ip administration on;No activity; type: functional, organism-based; parameters: dose 30 mg/kg; settings: at 30 mg/kg
# Mus musculus [5] = experiment: In vivo life span increase in mice after 60 mg/kg (mg/kg)/day (q3d X 3) starting 24 hr of ip administration on; No activity; type: functional, organism-based; parameters: dose 60 mg/kg; settings: at 60 mg/kg
# Mus musculus [6] = experiment: Compound was tested for life span of weight loss in mice at 1 mg/kg/day; type: functional
# Mus musculus [7] = experiment: Compound was tested for life span of weight loss in mice at 4 mg/kg/day; type: functional
# Mus musculus [8] = organism: Mus musculus; experiment: Compound was tested for life span loss of mean body weight; type: functional
# Mus musculus [9] = organism: Mus musculus; experiment: Growth inhibitory activity against L1210 mouse leukemia cells; type: functional
# Mus musculus [10] = organism: Mus musculus; experiment: Compound was tested for life span of weight gain; type: functional
# Mus musculus [11] = experiment: In vivo life span increase in mice after 240 mg/kg (mg/kg)/day (q3d X 3) starting 24 hr of ip administration on; type: functional; settings: route intraperitoneal
# Mus musculus [12] = experiment: In vivo life span increase in mice after 120 mg/kg (mg/kg)/day (q3d X 3) starting 24 hr of ip administration on; No activity; type: functional, organism-based; parameters: dose 120 mg/kg; settings: at 120 mg/kg
# Chain of Dihydrofolate reductase (Lactobacillus casei) (P00381 whole entry): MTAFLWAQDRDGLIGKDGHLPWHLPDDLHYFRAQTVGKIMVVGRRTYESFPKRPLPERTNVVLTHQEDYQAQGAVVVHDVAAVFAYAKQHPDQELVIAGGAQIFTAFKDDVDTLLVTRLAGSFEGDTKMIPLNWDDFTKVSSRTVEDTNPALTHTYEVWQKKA
compound,measurement,setting,value
N[C@@H](CCC(=O)O)C(=O)O [GLUTAMIC ACID],pKa,[1],3.2
Nc1nc(N)c2nc(CNc3ccc(C(=O)N[C@@H](CCC(=O)O)C(=O)O)cc3)cnc2n1,ID50,[2],27 nM
same,ID50,[3],2.2 nM
CC(=O)NCC(=O)O [ACETURIC ACID],pKa,[1],3.6
Nc1nc(N)c2nc(CNc3ccc(CNC(CO)CCC(=O)O)cc3)cnc2n1 (stereo not given),Increase,Mus musculus [4],inactive
same,ID50,[2],470 nM
same,Increase,Mus musculus [5],inactive
same,ILS at 1 mg/kg/day,Mus musculus [6],27%
same,ILS at 4 mg/kg/day,Mus musculus [7],45%
same,ID50,[3],24 nM
same,Loss,Mus musculus [8],5%
same,Activity,Mus musculus [9],1 µM
same,Weight gain,Mus musculus [10],13%
same,Increase,Mus musculus [11],22%
same,Increase,Mus musculus [12],inactive

# — ChEMBL document CHEMBL1121987 (J Med Chem, 1982)
